This passage reports IC50 results from EP0581464A1, “Ester derivatives and pharmaceutical compositions containing them” (ZENECA LIMITED, priority 1992, dated 1994).

The test has as its target T1, 5-LO (Homo sapiens, UniProt P09917).
T1 construct: incubating a test compound with heparinised human blood, prior to challenge with the calcium ionophore A23187; endogenous in cells; host or cells: human whole blood (blood cells)
T1 sequence (P09917 1-674): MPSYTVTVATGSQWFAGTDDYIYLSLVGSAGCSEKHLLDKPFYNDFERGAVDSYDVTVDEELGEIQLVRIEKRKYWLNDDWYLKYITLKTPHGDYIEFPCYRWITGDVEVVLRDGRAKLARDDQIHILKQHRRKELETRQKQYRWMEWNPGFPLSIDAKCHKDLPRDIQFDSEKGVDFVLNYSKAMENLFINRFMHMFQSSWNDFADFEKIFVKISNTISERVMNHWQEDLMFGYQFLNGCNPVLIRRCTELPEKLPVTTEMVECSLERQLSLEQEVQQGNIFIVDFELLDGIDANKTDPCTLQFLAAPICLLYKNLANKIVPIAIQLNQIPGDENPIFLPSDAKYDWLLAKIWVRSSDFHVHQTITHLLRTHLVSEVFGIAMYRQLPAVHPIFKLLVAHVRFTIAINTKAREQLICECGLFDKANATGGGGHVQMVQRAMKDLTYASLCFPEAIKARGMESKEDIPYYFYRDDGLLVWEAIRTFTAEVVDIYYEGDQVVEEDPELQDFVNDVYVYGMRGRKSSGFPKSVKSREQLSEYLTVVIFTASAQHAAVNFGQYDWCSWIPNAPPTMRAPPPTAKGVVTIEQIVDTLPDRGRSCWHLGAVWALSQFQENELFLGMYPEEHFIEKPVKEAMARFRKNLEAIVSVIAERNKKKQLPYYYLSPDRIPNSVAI
Put plainly: Test a): in vitro heparinised human blood challenged with calcium ionophore A23187, radioimmunoassay of LTB4. The class given is cell-based. To be noted: A23187 challenge, read-out: IC50 against LTB4 in test (a). The source says: As stated previously, the compounds of the formula I are inhibitors of the enzyme 5-LO. […] J. Pharmacol. 1985, 84, 34P) which involve the use of a protein-LTB4 conjugate produced using the procedure of Young et alia (Prostaglandins, 1983, 26(4), 605-613). The effects of a test compound on the enzyme cyclooxygenase (which is involved in the alternative metabolic pathway for arachidonic acid and gives rise to prostaglandins, thromboxanes and related metabolites) may be measured at the same time using the specific radioimmunoassay for thromboxane B2(TxB2) described by Carey and Forder (see above). This test provides an indication of the effects of a test compound against 5-LO and also cyclooxygenase in the presence of blood cells and proteins. It permits the selectivity of the inhibitory effect on 5-LO or cyclooxygenase to be assessed. • b) An ex vivo assay system, which is a variation of test a) above, involving administration to a group of rats of a test compound (usually orally as the suspension produced when a solution of the test compound in dimethylsulphoxide is added to carboxymethylcellulose), blood collection, heparinisation, challenge with A23187 and radioimmunoassay of LTB4 and TxB2. […]

As to `COC1(/C(N)=C/C(=O)OCc2ccc3ccccc3c2)CCOCC1` [Example 1, naphth-2-ylmethyl (Z)-3-amino-3-(4-methoxytetrahydropyran-4-yi)prop-2-enoate], the IC50 (in general, the point on the concentration scale where inhibition reaches its midpoint) was 0.07 µM.
As for `CO/N=C(\C)c1ccc(COC(=O)/C=C(\N)C2(OC)CCOCC2)cc1` [Example 2, 4-[(E)-1-methoxyiminoethyl]benzyl (Z)-3-amino-3-(4-methoxytetrahydropyran-4-yl)prop-2-enoate], the IC50 is 9.36 µM.
